Measured values: the supplement of paper PMC12463676, “Small-molecule dissolution of stress granules by redox modulation benefits ALS models” (Nature Chemical Biology, 2025)

compound: NC(=O)CCCCC1CCSS1 [lipoamide]; assay: thermal stability z-score vs DMSO; higher = more thermally stabilized by treatment; details: HeLa; lipoamide concentration 100 µM; arsenate co-treatment: 1 mM arsenate 1 h
Experimental: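 Cellular thermal proteome profiling in HeLa cells. Cells were treated with 100 µM lipoamide for 1 h, with or without 1 mM arsenate for a further 1 h, then heated to ten temperatures (37-66.3 °C), and soluble protein was quantified by TMT mass spectrometry relative to 0.1% DMSO controls. The thermal stability score (sum of log2 fold changes minus the abundance score) was transformed to a z-score; mean of n = 3 experiments.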
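Note: each temperature applied for 3 min, abundance score taken as mean log2 fold change at the two lowest temperatures, z-score obtained by mean subtraction and division by SD.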

Sequence of UniProt Q9NYU1 (Q9NYU1 whole entry): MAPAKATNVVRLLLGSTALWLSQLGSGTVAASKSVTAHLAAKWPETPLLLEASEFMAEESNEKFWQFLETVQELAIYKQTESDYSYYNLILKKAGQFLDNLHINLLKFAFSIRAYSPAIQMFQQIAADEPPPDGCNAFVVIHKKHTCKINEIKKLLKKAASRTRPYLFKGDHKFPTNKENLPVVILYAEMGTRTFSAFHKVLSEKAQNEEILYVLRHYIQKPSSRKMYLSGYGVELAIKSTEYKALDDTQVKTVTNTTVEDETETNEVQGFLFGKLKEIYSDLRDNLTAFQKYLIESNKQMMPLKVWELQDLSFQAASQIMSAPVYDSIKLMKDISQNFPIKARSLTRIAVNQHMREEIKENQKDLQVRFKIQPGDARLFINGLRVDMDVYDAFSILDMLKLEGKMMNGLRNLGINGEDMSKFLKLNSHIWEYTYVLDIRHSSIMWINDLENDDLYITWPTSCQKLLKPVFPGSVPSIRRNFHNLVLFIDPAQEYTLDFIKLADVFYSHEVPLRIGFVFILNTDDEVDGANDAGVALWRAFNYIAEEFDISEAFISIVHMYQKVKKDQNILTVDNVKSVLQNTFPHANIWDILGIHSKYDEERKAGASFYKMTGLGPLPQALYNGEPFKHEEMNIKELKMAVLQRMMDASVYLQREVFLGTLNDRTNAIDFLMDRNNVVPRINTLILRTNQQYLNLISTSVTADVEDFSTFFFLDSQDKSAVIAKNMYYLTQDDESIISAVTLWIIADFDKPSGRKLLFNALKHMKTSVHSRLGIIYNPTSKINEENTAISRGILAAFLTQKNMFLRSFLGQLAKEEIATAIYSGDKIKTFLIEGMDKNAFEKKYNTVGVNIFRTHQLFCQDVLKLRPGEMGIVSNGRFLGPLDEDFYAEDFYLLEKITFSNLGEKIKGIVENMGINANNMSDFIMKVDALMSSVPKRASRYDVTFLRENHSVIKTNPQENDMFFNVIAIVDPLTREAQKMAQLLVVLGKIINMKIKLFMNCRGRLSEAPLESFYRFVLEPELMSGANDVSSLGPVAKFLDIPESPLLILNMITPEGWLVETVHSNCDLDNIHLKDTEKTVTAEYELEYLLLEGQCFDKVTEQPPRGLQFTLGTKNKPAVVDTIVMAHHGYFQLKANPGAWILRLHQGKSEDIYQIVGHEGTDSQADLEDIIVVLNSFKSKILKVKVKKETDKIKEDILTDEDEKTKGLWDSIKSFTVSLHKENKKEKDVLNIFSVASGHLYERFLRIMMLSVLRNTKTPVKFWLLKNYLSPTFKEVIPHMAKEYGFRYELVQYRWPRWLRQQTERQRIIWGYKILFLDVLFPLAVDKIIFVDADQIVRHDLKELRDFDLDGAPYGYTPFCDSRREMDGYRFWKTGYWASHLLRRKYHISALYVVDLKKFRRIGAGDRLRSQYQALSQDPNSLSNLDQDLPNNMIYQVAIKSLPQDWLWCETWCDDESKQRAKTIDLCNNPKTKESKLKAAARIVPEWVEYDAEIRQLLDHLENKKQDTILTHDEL
Sequence of UniProt Q9H2C0 (Q9H2C0 whole entry): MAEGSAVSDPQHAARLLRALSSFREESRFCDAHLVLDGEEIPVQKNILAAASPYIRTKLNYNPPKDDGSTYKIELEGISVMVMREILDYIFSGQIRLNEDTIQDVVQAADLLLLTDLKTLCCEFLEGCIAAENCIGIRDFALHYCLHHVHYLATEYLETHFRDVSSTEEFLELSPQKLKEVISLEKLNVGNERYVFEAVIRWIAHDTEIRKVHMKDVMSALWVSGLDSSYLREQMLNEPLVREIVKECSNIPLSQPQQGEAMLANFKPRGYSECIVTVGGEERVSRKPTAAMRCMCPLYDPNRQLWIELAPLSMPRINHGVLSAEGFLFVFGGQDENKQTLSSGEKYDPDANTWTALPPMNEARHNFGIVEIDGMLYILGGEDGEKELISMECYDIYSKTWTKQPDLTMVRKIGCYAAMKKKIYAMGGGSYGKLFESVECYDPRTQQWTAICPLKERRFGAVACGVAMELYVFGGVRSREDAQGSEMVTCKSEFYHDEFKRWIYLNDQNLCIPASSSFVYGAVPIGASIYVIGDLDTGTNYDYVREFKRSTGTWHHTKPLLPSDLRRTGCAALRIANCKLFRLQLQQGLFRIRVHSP
Sequence of UniProt Q8NI37 (Q8NI37 whole entry): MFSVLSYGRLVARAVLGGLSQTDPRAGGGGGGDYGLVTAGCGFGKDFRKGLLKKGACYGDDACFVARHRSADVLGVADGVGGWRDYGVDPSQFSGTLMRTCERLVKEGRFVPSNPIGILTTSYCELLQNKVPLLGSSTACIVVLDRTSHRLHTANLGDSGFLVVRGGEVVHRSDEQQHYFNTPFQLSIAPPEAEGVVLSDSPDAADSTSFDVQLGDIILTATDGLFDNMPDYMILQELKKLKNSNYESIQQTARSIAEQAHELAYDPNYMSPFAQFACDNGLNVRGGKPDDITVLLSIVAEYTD
Sequence of UniProt Q9UHX1 (Q9UHX1 whole entry): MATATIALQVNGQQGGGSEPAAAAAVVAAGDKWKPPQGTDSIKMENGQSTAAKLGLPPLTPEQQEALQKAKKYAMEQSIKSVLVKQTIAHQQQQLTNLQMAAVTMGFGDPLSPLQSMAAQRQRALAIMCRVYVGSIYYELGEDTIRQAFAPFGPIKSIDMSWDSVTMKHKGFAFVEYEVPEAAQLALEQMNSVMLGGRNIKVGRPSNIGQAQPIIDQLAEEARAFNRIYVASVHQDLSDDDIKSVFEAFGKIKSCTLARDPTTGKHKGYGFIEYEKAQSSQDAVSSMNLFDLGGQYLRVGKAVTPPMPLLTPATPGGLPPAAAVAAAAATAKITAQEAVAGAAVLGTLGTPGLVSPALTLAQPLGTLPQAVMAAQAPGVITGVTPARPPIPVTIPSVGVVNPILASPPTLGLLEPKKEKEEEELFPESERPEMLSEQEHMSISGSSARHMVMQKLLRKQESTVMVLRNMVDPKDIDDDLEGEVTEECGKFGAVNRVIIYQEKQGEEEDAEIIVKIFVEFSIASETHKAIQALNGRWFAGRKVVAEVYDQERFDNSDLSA
Sequence of UniProt P07947 (P07947 whole entry, looked up): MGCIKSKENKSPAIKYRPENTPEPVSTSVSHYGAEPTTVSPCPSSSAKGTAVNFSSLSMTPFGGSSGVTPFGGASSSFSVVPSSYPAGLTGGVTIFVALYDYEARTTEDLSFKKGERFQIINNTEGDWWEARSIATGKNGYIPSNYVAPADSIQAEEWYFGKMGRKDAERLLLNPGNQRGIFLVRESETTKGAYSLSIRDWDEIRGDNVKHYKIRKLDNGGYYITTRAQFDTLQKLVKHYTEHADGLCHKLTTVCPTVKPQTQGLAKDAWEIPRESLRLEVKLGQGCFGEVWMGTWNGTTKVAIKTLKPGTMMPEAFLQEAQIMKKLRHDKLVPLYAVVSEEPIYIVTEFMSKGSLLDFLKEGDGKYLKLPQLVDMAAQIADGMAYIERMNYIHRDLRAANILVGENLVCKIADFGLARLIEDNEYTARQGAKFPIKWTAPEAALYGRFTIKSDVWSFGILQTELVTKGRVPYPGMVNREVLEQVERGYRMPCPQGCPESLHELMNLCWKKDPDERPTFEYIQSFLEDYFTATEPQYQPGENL
Sequence of UniProt Q10589 (Q10589 whole entry): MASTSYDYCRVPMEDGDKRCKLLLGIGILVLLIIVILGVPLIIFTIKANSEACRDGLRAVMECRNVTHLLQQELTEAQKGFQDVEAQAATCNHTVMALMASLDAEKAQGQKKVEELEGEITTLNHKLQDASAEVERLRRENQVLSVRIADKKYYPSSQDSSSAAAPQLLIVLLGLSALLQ
Sequence of UniProt Q9UIJ7 (Q9UIJ7 whole entry): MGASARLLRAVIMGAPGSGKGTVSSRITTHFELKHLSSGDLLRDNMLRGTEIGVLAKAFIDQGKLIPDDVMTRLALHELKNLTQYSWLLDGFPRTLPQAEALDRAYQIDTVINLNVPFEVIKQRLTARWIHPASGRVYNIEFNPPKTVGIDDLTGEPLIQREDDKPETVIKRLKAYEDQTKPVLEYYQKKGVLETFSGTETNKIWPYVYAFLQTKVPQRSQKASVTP
Sequence of UniProt Q99543 (Q99543 whole entry): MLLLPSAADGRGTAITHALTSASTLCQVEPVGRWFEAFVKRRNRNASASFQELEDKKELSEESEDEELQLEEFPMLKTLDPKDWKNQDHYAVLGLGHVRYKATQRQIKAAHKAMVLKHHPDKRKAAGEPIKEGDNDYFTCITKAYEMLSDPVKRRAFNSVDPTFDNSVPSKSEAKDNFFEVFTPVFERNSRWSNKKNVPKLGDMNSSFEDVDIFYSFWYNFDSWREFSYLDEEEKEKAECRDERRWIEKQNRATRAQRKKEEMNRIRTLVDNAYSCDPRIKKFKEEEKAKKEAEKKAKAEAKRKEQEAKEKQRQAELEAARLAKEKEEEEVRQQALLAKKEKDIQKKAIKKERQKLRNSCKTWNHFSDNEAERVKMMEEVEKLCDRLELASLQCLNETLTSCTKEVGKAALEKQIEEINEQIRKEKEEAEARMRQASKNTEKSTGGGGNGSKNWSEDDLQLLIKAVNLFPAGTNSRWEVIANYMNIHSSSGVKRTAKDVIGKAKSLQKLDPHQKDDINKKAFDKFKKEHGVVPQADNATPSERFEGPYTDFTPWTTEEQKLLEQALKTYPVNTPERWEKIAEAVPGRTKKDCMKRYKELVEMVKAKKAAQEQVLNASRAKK
Sequence of UniProt Q5T7V8 (Q5T7V8 whole entry): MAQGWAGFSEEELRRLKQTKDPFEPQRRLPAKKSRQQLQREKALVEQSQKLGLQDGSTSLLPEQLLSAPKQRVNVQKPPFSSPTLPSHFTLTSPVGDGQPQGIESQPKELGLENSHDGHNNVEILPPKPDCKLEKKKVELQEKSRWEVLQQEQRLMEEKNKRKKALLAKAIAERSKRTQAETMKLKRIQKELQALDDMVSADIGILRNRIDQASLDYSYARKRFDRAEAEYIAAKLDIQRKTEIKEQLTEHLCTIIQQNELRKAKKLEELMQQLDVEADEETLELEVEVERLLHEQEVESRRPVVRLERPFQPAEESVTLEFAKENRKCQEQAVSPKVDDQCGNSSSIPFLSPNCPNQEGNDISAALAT

Target | thermal stability z-score
PAGR1 (UniProt Q9BTK6) | 0.263
BST2 (UniProt Q10589) | 0.265
ALG11 (UniProt Q2TAA5) | 0.266
SUPV3L1 (UniProt Q8IYB8) | -0.171
SCARB1 (UniProt Q8WTV0) | 0.0511
SMARCC1 (UniProt Q92922) | 0.791
WBP4 (UniProt O75554) | 1.32
TJP1 (UniProt Q07157) | 0.078
TFB2M (UniProt Q9H5Q4) | -0.3
TCERG1 (UniProt O14776) | 0.7
DNAJC2 (UniProt Q99543) | -0.0501
TMEM33 (UniProt P57088) | -0.0206
CASP4 (UniProt P49662) | 0.133
PUF60 (UniProt Q9UHX1) | 0.11
GAN (UniProt Q9H2C0) | 0.0625
ZNF143 (UniProt P52747) | -0.135
AK3 (UniProt Q9UIJ7) | -0.869
FAF1 (UniProt Q9UNN5) | 0.777
USP19 (UniProt O94966) | 0.774
ECI2 (UniProt O75521) | 0.0605
PTS (UniProt Q03393) | 0.382
CALCOCO2 (UniProt Q13137) | 0.172
UGGT2 (UniProt Q9NYU1) | -1.81
PPP3CB (UniProt P16298) | -0.386

Target | thermal stability z-score
CRYZL1 (UniProt O95825) | -0.0756
DSC2 (UniProt Q02487) | 2.38
ERGIC1 (UniProt Q969X5) | -1.39
ERCC6 | 1.08
NPTX1 (UniProt Q15818) | -3.62
POLR2C (UniProt P19387) | 0.705
POLD2 (UniProt P49005) | 0.196
COX6B1 (UniProt P14854) | 0.898
LANCL1 (UniProt O43813) | 0.232
GCN1 (UniProt Q92616) | -0.244
ZC3H11A (UniProt O75152) | 0.0837
SUCLG1 (UniProt P53597) | 0.0617
CRTC1 (UniProt Q6UUV9) | -0.063
FAM20B (UniProt O75063) | -1.35
TERF2IP (UniProt Q9NYB0) | -0.302
GORAB (UniProt Q5T7V8) | 0.521
CCDC186 (UniProt Q7Z3E2) | -0.0502
RPA1 (UniProt P27694) | -0.6
DHRS7B (UniProt Q6IAN0) | 0.315
RPIA (UniProt P49247) | 0.704
PRKAR1B (UniProt P31321) | 0.568
ERLIN2 (UniProt O94905) | -1.05
NDE1 (UniProt Q9NXR1) | 0.584
PRIM1 (UniProt P49642) | -0.361

Target | thermal stability z-score
KBTBD6 (UniProt Q86V97) | -0.502
YES1 (UniProt P07947) | -0.641
RPL27 (UniProt P61353) | 0.459
DEK (UniProt P35659) | 0.116
CEP170 (UniProt Q5SW79) | -0.0596
LPCAT1 (UniProt Q8NF37) | -0.369
PDCL (UniProt Q13371) | 1.05
GFM2 (UniProt Q969S9) | 0.216
AARSD1 (UniProt Q9BTE6) | 0.0117
PNKP (UniProt Q96T60) | -0.0218
ATP6V1A (UniProt P38606) | -0.368
HNRNPA1 (UniProt P09651) | -1.06
OTUD6B (UniProt Q8N6M0) | 0.504
AP3S1 (UniProt Q92572) | 0.0661
RGS10 (UniProt O43665) | 0.748
EPHB4 (UniProt P54760) | -0.297
MNAT1 (UniProt P51948) | -0.257
LAMTOR2 (UniProt Q9Y2Q5) | 0.266
SH3PXD2B (UniProt A1X283) | -0.428
DHCR7 (UniProt Q9UBM7) | -0.283
ECD (UniProt O95905) | -0.47
PPTC7 (UniProt Q8NI37) | -0.248
RWDD2B (UniProt P57060) | 0.0612

same assay, conditions: HeLa; lipoamide concentration 100 µM; arsenate co-treatment: none

Target | thermal stability z-score
PAGR1 (UniProt Q9BTK6) | -0.446
BST2 (UniProt Q10589) | 0.606
ALG11 (UniProt Q2TAA5) | -0.15
SUPV3L1 (UniProt Q8IYB8) | -0.116
SCARB1 (UniProt Q8WTV0) | 0.144
SMARCC1 (UniProt Q92922) | 1.14
WBP4 (UniProt O75554) | 0.617
TJP1 (UniProt Q07157) | -0.0866
TFB2M (UniProt Q9H5Q4) | -0.261
TCERG1 (UniProt O14776) | 0.361
DNAJC2 (UniProt Q99543) | 0.0208
TMEM33 (UniProt P57088) | -1.12
CASP4 (UniProt P49662) | 0.419
PUF60 (UniProt Q9UHX1) | 0.816
GAN (UniProt Q9H2C0) | -0.31
ZNF143 (UniProt P52747) | -0.0231
AK3 (UniProt Q9UIJ7) | -1
FAF1 (UniProt Q9UNN5) | 0.869
USP19 (UniProt O94966) | -0.193
ECI2 (UniProt O75521) | -0.724
PTS (UniProt Q03393) | -0.301
CALCOCO2 (UniProt Q13137) | 0.108
UGGT2 (UniProt Q9NYU1) | -1.31
PPP3CB (UniProt P16298) | -2.04

Target | thermal stability z-score
CRYZL1 (UniProt O95825) | -0.692
DSC2 (UniProt Q02487) | 5.06
ERGIC1 (UniProt Q969X5) | -1.4
ERCC6 | 0.347
NPTX1 (UniProt Q15818) | -3.29
POLR2C (UniProt P19387) | 1.15
POLD2 (UniProt P49005) | 0.117
COX6B1 (UniProt P14854) | 0.644
LANCL1 (UniProt O43813) | 0.164
GCN1 (UniProt Q92616) | 0.292
ZC3H11A (UniProt O75152) | -0.0442
SUCLG1 (UniProt P53597) | 0.192
CRTC1 (UniProt Q6UUV9) | -0.202
FAM20B (UniProt O75063) | -1.05
TERF2IP (UniProt Q9NYB0) | 0.33
GORAB (UniProt Q5T7V8) | 0.173
CCDC186 (UniProt Q7Z3E2) | -0.00496
RPA1 (UniProt P27694) | -0.317
DHRS7B (UniProt Q6IAN0) | -0.159
RPIA (UniProt P49247) | 0.8
PRKAR1B (UniProt P31321) | 0.264
ERLIN2 (UniProt O94905) | -0.752
NDE1 (UniProt Q9NXR1) | 0.266
PRIM1 (UniProt P49642) | -0.125

Target | thermal stability z-score
KBTBD6 (UniProt Q86V97) | 0.182
YES1 (UniProt P07947) | -0.393
RPL27 (UniProt P61353) | 0.431
DEK (UniProt P35659) | 0.695
CEP170 (UniProt Q5SW79) | -0.496
LPCAT1 (UniProt Q8NF37) | -0.129
PDCL (UniProt Q13371) | 0.207
GFM2 (UniProt Q969S9) | 0.105
AARSD1 (UniProt Q9BTE6) | 0.0955
PNKP (UniProt Q96T60) | -0.0196
ATP6V1A (UniProt P38606) | -0.529
HNRNPA1 (UniProt P09651) | -1.24
OTUD6B (UniProt Q8N6M0) | -0.85
AP3S1 (UniProt Q92572) | 0.0785
RGS10 (UniProt O43665) | 0.902
EPHB4 (UniProt P54760) | -0.194
MNAT1 (UniProt P51948) | -0.423
LAMTOR2 (UniProt Q9Y2Q5) | 0.19
SH3PXD2B (UniProt A1X283) | -0.272
DHCR7 (UniProt Q9UBM7) | -0.384
ECD (UniProt O95905) | -0.00943
PPTC7 (UniProt Q8NI37) | -0.287
RWDD2B (UniProt P57060) | -0.0257

compound: O=[As]([O-])(O)O.[K+] [potassium arsenate]; assay: as above; details: HeLa; arsenate concentration 1 mM
Experimental: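 Cellular thermal proteome profiling in HeLa cells treated with 1 mM arsenate for 1 h (DMSO pretreatment), heated to ten temperatures (37-66.3 °C). Soluble protein was quantified by TMT mass spectrometry relative to DMSO controls; the thermal stability score was transformed to a z-score; mean of n = 3 experiments.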

Target | thermal stability z-score
PAGR1 (UniProt Q9BTK6) | -0.194
BST2 (UniProt Q10589) | 0.172
ALG11 (UniProt Q2TAA5) | 0.806
SUPV3L1 (UniProt Q8IYB8) | -0.478
SCARB1 (UniProt Q8WTV0) | 0.58
SMARCC1 (UniProt Q92922) | -0.204
WBP4 (UniProt O75554) | -2.19
TJP1 (UniProt Q07157) | 0.371
TFB2M (UniProt Q9H5Q4) | 0.215
TCERG1 (UniProt O14776) | -0.0887
DNAJC2 (UniProt Q99543) | 1.09
TMEM33 (UniProt P57088) | 0.972
CASP4 (UniProt P49662) | 0.496
PUF60 (UniProt Q9UHX1) | 0.789
GAN (UniProt Q9H2C0) | -0.167
ZNF143 (UniProt P52747) | 0.0928
AK3 (UniProt Q9UIJ7) | -1.11
FAF1 (UniProt Q9UNN5) | 0.738
USP19 (UniProt O94966) | -0.0515
ECI2 (UniProt O75521) | -0.44
PTS (UniProt Q03393) | 0.981
CALCOCO2 (UniProt Q13137) | 0.743
UGGT2 (UniProt Q9NYU1) | 0.289
PPP3CB (UniProt P16298) | -0.199

Target | thermal stability z-score
CRYZL1 (UniProt O95825) | -0.358
DSC2 (UniProt Q02487) | 1.77
ERGIC1 (UniProt Q969X5) | 0.483
ERCC6 | -0.581
NPTX1 (UniProt Q15818) | 0.869
POLR2C (UniProt P19387) | 0.481
POLD2 (UniProt P49005) | -0.0023
COX6B1 (UniProt P14854) | -0.234
LANCL1 (UniProt O43813) | 0.0783
GCN1 (UniProt Q92616) | 0.522
ZC3H11A (UniProt O75152) | -0.845
SUCLG1 (UniProt P53597) | 0.206
CRTC1 (UniProt Q6UUV9) | -0.151
FAM20B (UniProt O75063) | 0.335
TERF2IP (UniProt Q9NYB0) | -0.131
GORAB (UniProt Q5T7V8) | 0.527
CCDC186 (UniProt Q7Z3E2) | 0.0522
RPA1 (UniProt P27694) | 0.0213
DHRS7B (UniProt Q6IAN0) | 0.0755
RPIA (UniProt P49247) | 0.27
PRKAR1B (UniProt P31321) | 1.31
ERLIN2 (UniProt O94905) | -0.0487
NDE1 (UniProt Q9NXR1) | 0.0354
PRIM1 (UniProt P49642) | -0.439

Target | thermal stability z-score
KBTBD6 (UniProt Q86V97) | -1.11
YES1 (UniProt P07947) | -2.98
RPL27 (UniProt P61353) | -0.612
DEK (UniProt P35659) | -0.316
CEP170 (UniProt Q5SW79) | 1.21
LPCAT1 (UniProt Q8NF37) | 0.149
PDCL (UniProt Q13371) | -0.321
GFM2 (UniProt Q969S9) | 0.226
AARSD1 (UniProt Q9BTE6) | 0.428
PNKP (UniProt Q96T60) | -0.329
ATP6V1A (UniProt P38606) | -0.613
HNRNPA1 (UniProt P09651) | -1.94
OTUD6B (UniProt Q8N6M0) | 0.0655
AP3S1 (UniProt Q92572) | 0.131
RGS10 (UniProt O43665) | 0.0472
EPHB4 (UniProt P54760) | 0.295
MNAT1 (UniProt P51948) | 0.102
LAMTOR2 (UniProt Q9Y2Q5) | 0.135
SH3PXD2B (UniProt A1X283) | -0.433
DHCR7 (UniProt Q9UBM7) | 0.411
ECD (UniProt O95905) | -0.232
PPTC7 (UniProt Q8NI37) | 0.222
RWDD2B (UniProt P57060) | -0.0179
